Results reported in patent EP4667451A1, “PESTICIDALLY-ACTIVE 2,2-DIHALOCYCLOPROPYL COMPOUNDS” (Syngenta Crop Protection AG, priority 2024, dated 2025).

Tests used:
Format in all cases: in vivo
[1] = test system: Myzus persicae (Green peach aphid); assay: Myzus persicae (Green peach aphid) systemic activity, pea seedling roots in test solution; conditions: 144 h, test rate of 24 ppm, assessed 6 days after placing seedlings into test solutions
Procedure: Myzus persicae (Green peach aphid) Systemic activity
Roots of pea seedlings infested with an aphid population of mixed ages were placed directly into aqueous test solutions prepared from 10,000 DMSO stock solutions. The samples were assessed for mortality 6 days after placing seedlings into test solutions.

[2] = test system: Aphis craccivora (Black bean aphid); assay: Aphis craccivora (Black bean aphid), mixed population, systemic/feeding, pea seedlings in test solutions; conditions: 120 h, application rate of 24 ppm, assessed 5 days later, read-out: growth inhibition
Procedure: Aphis craccivora (Black bean aphid), mixed population, systemic/feeding Pea seedlings infested with mixed aged aphid population, were put into glass vials with test solutions. 5 days later, samples were assessed for mortality.

[3] = test system: Myzus persicae (Green peach aphid); assay: Myzus persicae (Green peach aphid) intrinsic activity, sucrose solution feeding through Parafilm; conditions: test rate of 12 ppm, assessed 5 days after infestation; for mortality at 12 ppm: Myzus persicae, 120 h
Source text: Myzus persicae (Green peach aphid) Intrinsic activity
Test compounds prepared from 10,000 ppm DMSO stock solutions were applied by pipette into 24-well microtiter plates and mixed with sucrose solution. The plates were closed with a stretched Parafilm. A plastic stencil with 24 holes was placed onto the plate and infested pea seedlings were placed directly on the Parafilm. The infested plate was closed with a gel blotting paper and another plastic stencil and then turned upside down. The samples were assessed for mortality 5 days after infestation.

[4] = test system: Myzus persicae (Green peach aphid); assay: Myzus persicae (Green peach aphid) feeding/contact activity, sprayed eggplant leaf discs; conditions: application rate of 200 ppm, assessed 6 days after infestation
Procedure: Myzus persicae (Green peach aphid) Feeding/Contact activity Eggplant leaf discs were placed onto agar in a 24-well microtiter plate and sprayed with aqueous test solutions prepared from 10,000 ppm DMSO stock solutions. After drying, the leaf discs were infested with an aphid population of mixed ages. The samples were assessed for mortality 6 days after infestation.

## O=C(NCCCCCCC1CC1(F)Br)c1ccccc1 (stereo not shown) [Compound A4, N-[6-(2-bromo-2-fluoro-cyclopropyl)hexyl]benzamide]
[1]
  mortality at 24 ppm: ≥ 80%

## OCCCCCCC1CC1(F)Br (stereo not shown) [Compound A7, 6-(2-bromo-2-fluoro-cyclopropyl)hexan-1-ol]
[2]
  inhibition at 24 ppm: ≥ 80%

## O=C(OCCCCCCC1CC1(F)Br)c1ccccc1 (stereo not shown) [Compound A8, 6-(2-bromo-2-fluoro-cyclopropyl)hexyl benzoate]
[2]
  inhibition at 24 ppm: ≥ 80%

## OCCCCC1CC1(F)Br (stereo not shown) [Compound A9, 4-(2-bromo-2-fluoro-cyclopropyl)butan-1-ol]
[3]
  mortality at 12 ppm: ≥ 80%
[2]
  inhibition at 24 ppm: ≥ 80%

## O=C(NCCCCC1CC1(F)Br)C1CC1 (stereo not shown) [Compound A24, N-[4-(2-bromo-2-fluoro-cyclopropyl)butyl]cyclopropanecarboxamide]
[4]; Myzus persicae, foliar, 144 h, read-out: growth inhibition
  inhibition at 200 ppm: ≥ 80%

## O=C(NCCCCC1CC1(F)Br)N1CCCCC1 (stereo not shown) [Compound A43, N-[4-(2-bromo-2-fluoro-cyclopropyl)butyl]piperidine-1-carboxamide]
[3]
  mortality at 12 ppm: ≥ 80%

## N-[4-(2-bromo-2-fluoro-cyclopropyl)butyl]-2,3-dihydro-1,4-benzodioxine-5-sulfonamide [Compound A27]
[4]
  growth inhibition: at least 80%

## N-[4-(2-bromo-2-fluoro-cyclopropyl)butyl]-3,5-dimethyl-isoxazole-4-sulfonamide [Compound A11]
[3]
  mortality: at least 80%

## N-[4-(2-bromo-2-fluoro-cyclopropyl)butyl]-6-methyl-pyridine-3-sulfonamide [Compound A10]
[4]
  growth inhibition: at least 80%
